Results published in patent US20240158386A1, “BENZOXAZOLONE INHIBITORS OF INFLAMMASOMES” (ICAHN SCHOOL OF MEDICINE AT MOUNT SINAI, priority 2021, published 2024).

Assays:
IL6 production = assay: IL-6 production in cell culture supernatant (ELISA); format: cell-based, mouse; details: FIG. 3B
Experimental: (§1) Cytokine quantification. IL-1β in cell supernatants and brain tissue samples—after the different treatment groups—was quantified using the Mouse IL-1 beta/IL-1F2 DuoSet ELISA kit (R&D systems), IL-6 in cell culture supernatant was measured through the Mouse IL-6 ELISA kit (ThermoFisher), TNF-α in cell culture supernatants was determined using the Mouse TNF-alpha DuoSet ELISA (R*D systems), and IL-18 in brain tissue was measured through the IL-18 Mouse ELISA Kit (Invitrogen) following the manufacturers' recommended protocol. IL-1β precursor and cleaved IL-1β in the FC of mice treated with vehicles, LPS, or C77-LPS was assessed by western blot. All samples were run in technical duplicates.

NLRP3 = assay: In-vivo assessment of C77: brain cytokines in LPS-treated mice; parameters: species or system WT C57BL/6J mice
Experimental: as §1
Animals used in in-vivo assessments. WT C57BL/6J mice (stock #000664) were obtained from The Jackson Laboratory. Mice were housed in groups of five animals per cage on a 12:12 hours light/dark cycle. Water and food were provided ad libitum. 8-10 weeks males were used for experiments. All procedures were approved by the Institutional Animal Care and use Committee of the Icahn School of Medicine at Mount Sinai.
In-vivo assessment of C77. The ability of C77 to inhibit NLRP3 in-vivo was evaluated using WT C57BL/6J mice. C77 (50 mg/kg), or the same volume of DMSO vehicle, was intraperitoneally injected 2 hours before of LPS (15 mg/kg) or vehicle (PBS) administration. 1.5 hours later, the animals were sacrificed and their brain was isolated. Cortex, frontal cortex, hippocampus, and cerebellum regions from the right hemisphere were obtained for IL-1β analysis. The left hemisphere was used for gene expression analysis. N=5 animals per group.

AIM2 inflammasome = molecular target: T1, AIM2 inflammasome (Mus musculus, UniProt Q91VJ1); assay: AIM2 inflammasome activation assay: IL-1β release, microglia from NLRP3 KO mice, LPS and poly(dA:dT); format: cell-based
T1 construct: endogenous in cells; host or cells: primary microglia from NLRP3 KO mice
T1 sequence (Q91VJ1 1-354): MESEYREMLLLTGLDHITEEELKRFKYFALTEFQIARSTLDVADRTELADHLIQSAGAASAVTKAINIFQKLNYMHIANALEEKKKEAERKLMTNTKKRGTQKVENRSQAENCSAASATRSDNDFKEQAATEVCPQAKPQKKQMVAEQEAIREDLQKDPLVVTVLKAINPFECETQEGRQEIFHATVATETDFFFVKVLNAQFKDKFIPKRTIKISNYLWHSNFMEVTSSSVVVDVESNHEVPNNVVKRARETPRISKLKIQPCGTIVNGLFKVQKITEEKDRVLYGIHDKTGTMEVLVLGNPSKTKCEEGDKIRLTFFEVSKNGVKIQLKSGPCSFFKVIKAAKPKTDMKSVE
Experimental: AIM2, NLRP7, and NLRC4 inflammasomes activation assays. Microglia from NLRP3 KO mice were pre-treated with 100 μM C75, C78, C97, or C77, during one hour. AIM2 inflammasome activation was induced through the addition of 100 ng/ml LPS for 2 hours, followed by transfection of 1 μg poly(dA:dT) using Lipofectamine 2000 during 2 hours, following the manufacturer recommendations. NLRC4 was activated by treatment with 150 ng/ml LPS for 2 hours, before transfection of 1 μg flagellin during 2 hours, using lipofectamine 2000 as transfection reagent. Negative and positive controls were pre-treated with the same DMSO percentage as cells treated with the inhibitors. Negative controls were kept untreated after DMSO addition, while LPS-poly(dA:dT) or LPS-flagellin was added to positive controls for AIM2, and NLRC4 activation, respectively. For activation of the NLRP7 inflammasome different conditions were assessed: treatment of WT microglia cultures with 400 ng/ml fibroblast-stimulating lipopeptide-1 (fsl-1) for 7 hours, priming with 150 ng/ml LPS for 1 hour and treatment with 400 ng/ml fsl-1 for 7 hours, and priming with 150 ng/ml LPS and transfection of 400 ng/ml fsl-1 with lipofectamine. MCC950 was used as a negative control for NLRC4 and AIM-2 inhibition. […]
Cytokine quantification. […] IL-1β precursor and cleaved IL-1β in the FC of mice treated with vehicles, LPS, or C77-LPS was assessed by western blot. […]

[1] = 50 mg/kg IP 2 hours before 15 mg/kg LPS IP

**Q.** `O=C(Cn1c(=O)oc2ccccc21)NCc1cncc(-c2ccsc2)c1` [Compound C77] was tested. Which “inhibition of IL6 production” value (IL6 production) did it give?
**A.** did not inhibit

**Q.** What about the “IL-1β levels in the cerebellum” value (NLRP3; [1]) of the same compound?
**A.** significantly reduced IL-1β levels

**Q.** What about the “IL-1β levels in the frontal cortex” value (NLRP3; [1]) of the same compound?
**A.** significantly reduced IL-1β levels

**Q.** And the “IL-1β levels in the hippocampus” value (NLRP3; [1])?
**A.** significantly reduced IL-1β levels

**Q.** And the “IL-18 levels in the frontal cortex” value (NLRP3; [1])?
**A.** significantly reduced IL-18 levels

**Q.** And the “cleaved IL-1β versus pro IL-1β by western blot” value (NLRP3; frontal cortex of mice treated with C77-LPS)?
**A.** reduces the cleaved form of IL-β and not pro IL-1β

**Q.** And the “inhibition of AIM2-mediated IL-1β release” value (AIM2 inflammasome)?
**A.** did not inhibit
